The results in this text go back to patent US20250304596A1, “PYRAZINE DERIVATIVES AND USES THEREOF” (FOGHORN THERAPEUTICS INC., priority 2022, published 2025).

One test deals with T1, HiBit-BRM fusion protein (Homo sapiens, UniProt P51531).
T1 construct: expressed in transfected cells
In words: HiBiT-BRM cell-based degradation assay (Nano-Glo HiBiT Lytic Detection, 24 h). The following applies: stable HeLa cell line expressing HiBiT-BRM; for DC50: read-out: BRM HiBit Degradation IC50. On the procedure: (§1) Procedure: A stable HeLa cell line expressing HiBiT-BRM was generated. On day 0, 5000 cells were seeded in 40 μL of media into each well of 384-well cell culture plates. On day 1, cells were treated with 120 nL DMSO or 120 nL of 3-fold serially DMSO-diluted compounds (10 points in duplicate with 30 μM as final top dose). Subsequently plates were incubated for 24 h in a standard tissue culture incubator and equilibrated at room temperature for 15 minutes. Nano-Glo HiBiT Lytic Detection System (Promega N3050) reagent was freshly prepared and 20 ul was added to each well. Upon addition of this LgBit-containing reagent, the HiBiT and LgBiT proteins associate to form the luminescent NanoBiT Iuciferase. The plates were shaken for 10 minutes at room temperature and the bioluminescence read using an EnVision plate reader (PerkinElmer).
(§2) The degradation % was calculated using the following formula: % degradation=100%-100%×(LumSample−LumLC)/(LumHC−LumLC). DMSO treated cells are employed as High Control (HC) and 2 μM of a known BRM/BRG1 degrader standard treated cells are employed as Low Control (LC).
On the technique in general: HiBiT is a short tag that completes a luciferase, so light tracks the accessible tagged protein.

For test [1], the target named is T2, HiBit-BRG1 fusion protein (Homo sapiens, UniProt P51532).
T2 construct: expressed in transfected cells
T2 sequence (P51532 whole entry, the tested form may be a part): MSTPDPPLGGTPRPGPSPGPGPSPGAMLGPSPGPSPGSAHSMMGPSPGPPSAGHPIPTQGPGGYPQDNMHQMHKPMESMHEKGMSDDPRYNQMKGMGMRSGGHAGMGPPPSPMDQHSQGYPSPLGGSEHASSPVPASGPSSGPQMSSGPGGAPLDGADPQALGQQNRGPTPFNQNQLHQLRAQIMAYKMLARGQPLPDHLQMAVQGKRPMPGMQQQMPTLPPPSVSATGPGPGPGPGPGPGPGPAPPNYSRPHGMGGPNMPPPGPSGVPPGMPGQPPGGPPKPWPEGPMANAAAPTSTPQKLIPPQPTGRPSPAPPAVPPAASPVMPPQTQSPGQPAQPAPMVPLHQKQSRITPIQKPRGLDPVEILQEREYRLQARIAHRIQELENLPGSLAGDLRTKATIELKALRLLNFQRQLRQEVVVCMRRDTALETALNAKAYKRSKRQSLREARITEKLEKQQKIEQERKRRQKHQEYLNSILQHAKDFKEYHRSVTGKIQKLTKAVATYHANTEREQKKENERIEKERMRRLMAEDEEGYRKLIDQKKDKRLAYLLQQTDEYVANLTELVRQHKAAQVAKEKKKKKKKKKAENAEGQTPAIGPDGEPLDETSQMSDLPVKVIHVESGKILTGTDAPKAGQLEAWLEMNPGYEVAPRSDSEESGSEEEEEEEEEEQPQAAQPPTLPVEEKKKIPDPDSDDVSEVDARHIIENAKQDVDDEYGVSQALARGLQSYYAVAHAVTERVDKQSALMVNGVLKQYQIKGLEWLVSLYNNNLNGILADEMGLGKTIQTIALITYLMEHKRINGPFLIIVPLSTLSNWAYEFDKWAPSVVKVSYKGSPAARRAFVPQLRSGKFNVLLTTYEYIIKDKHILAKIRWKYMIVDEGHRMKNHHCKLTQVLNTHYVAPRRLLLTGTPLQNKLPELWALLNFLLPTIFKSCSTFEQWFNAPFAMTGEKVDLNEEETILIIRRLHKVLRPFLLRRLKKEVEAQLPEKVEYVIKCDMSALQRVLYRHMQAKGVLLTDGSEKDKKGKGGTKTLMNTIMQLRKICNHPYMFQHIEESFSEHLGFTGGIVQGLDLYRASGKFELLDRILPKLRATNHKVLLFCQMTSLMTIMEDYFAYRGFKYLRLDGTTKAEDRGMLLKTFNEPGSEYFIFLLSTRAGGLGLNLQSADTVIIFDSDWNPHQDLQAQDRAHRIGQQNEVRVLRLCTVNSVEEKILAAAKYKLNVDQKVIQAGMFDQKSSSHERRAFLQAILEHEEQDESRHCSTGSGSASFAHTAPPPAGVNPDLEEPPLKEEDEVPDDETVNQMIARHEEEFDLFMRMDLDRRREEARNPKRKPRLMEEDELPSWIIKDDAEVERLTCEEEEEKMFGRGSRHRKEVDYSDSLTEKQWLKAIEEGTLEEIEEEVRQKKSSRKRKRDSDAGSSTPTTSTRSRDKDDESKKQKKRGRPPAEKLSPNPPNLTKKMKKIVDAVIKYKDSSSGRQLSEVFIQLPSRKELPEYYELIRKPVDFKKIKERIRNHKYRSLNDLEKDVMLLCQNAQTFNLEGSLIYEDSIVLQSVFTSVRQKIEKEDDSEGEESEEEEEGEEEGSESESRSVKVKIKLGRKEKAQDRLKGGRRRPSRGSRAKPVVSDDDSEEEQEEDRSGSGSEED
In words: HiBiT-BRG1 cell-based degradation assay (Nano-Glo HiBiT Lytic Detection, 24 h). The following applies: stable HeLa cell line expressing HiBit-BRG1 and LgBit; for Dmax: read-out: BRG1 HiBit Degradation Maximum (%); for DC50: read-out: BRMG1 HiBit Degradation IC50. On the procedure: as §1
For measurement of BRG1 degradation, a stable HeLa cell line expressing HiBit-BRG1 and LgBit was generated. The same protocol as above was then followed.
as §2

T1 sequence (P51531 whole entry, the tested form may be a part): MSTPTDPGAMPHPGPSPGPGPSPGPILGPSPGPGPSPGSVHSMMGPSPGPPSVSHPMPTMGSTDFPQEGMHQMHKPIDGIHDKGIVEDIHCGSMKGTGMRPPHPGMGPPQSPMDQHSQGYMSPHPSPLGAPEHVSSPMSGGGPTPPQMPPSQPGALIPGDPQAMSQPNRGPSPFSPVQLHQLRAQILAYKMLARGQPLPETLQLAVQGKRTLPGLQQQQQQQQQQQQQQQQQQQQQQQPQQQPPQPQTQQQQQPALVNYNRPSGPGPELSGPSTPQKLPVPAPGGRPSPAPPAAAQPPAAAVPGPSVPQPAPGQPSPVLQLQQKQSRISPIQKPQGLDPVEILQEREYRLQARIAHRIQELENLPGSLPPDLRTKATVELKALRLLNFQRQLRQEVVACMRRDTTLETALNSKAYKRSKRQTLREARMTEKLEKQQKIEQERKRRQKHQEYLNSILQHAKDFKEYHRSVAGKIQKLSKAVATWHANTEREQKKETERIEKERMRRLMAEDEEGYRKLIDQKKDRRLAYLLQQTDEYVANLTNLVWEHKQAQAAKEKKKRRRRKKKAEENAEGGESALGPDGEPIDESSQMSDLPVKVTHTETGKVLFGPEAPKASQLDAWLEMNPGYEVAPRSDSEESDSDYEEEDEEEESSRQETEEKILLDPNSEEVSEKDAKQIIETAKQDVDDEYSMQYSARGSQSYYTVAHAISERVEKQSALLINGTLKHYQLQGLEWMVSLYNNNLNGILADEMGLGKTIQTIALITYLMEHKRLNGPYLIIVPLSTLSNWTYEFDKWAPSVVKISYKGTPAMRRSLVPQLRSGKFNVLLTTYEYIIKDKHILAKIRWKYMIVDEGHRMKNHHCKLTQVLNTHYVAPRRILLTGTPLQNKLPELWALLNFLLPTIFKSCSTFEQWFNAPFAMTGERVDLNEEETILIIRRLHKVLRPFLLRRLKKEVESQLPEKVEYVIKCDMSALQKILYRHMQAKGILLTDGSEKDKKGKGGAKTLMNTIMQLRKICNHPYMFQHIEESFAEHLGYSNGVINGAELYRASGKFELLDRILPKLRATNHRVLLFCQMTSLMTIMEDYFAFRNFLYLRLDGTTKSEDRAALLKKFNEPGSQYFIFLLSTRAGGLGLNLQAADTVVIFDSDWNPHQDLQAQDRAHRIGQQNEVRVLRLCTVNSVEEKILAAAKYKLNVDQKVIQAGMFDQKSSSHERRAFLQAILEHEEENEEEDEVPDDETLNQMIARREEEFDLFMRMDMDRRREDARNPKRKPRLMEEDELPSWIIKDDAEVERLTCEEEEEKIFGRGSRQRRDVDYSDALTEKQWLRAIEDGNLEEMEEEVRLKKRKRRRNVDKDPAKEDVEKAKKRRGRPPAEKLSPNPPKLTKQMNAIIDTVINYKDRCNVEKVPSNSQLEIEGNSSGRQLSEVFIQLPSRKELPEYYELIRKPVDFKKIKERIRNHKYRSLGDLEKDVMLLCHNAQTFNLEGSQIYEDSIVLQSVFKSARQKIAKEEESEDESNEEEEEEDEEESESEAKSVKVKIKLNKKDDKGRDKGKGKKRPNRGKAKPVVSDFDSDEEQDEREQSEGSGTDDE

As to `Cc1nc(N2CCC(c3sc4nnc(-c5ccccc5O)cc4c3C)CC2)ccc1-c1noc(C(C(=O)N2C[C@H](O)C[C@H]2C(=O)N[C@@H](C)c2ccc(-c3scnc3C)cc2)C(C)C)c1Cl` (stereo in doubt) [Compound 21, (2S,4R)-1-((S)-2-(4-chloro-3-(6-(4-(3-(2-hydroxyphenyl)-5-methylthieno[2,3-c]pyridazin-6-yl)piperidin-1-yl)-2-methylpyridin-3-yl)isoxazol-5-yl)-3-methylbutanoyl)-4-hydroxy-N-((S)-1-(4-(4-methylthiazol-5-yl)phenyl)ethyl)pyrrolidine-2-carboxamide], on HiBit-BRM fusion protein, the “BRM HiBit Degradation Maximum (%)” value is recorded as “A (“A” indicates maximum degradation ≥75%)” and the DC50 was greater than 10 nM. In test [1], the Dmax was greater than 50% and the DC50 is greater than 100 nM.

Consider `Cc1cc(-c2cc([C@H](C(=O)N3C[C@H](O)C[C@H]3C(=O)N[C@@H](C)c3ccc(-c4scnc4C)cc3)C(C)C)on2)cnc1N1CCC(c2cc3cc(-c4ccccc4O)nnc3s2)CC1` (single isomer, unassigned) [Compound 2], for which, on HiBit-BRM fusion protein, the “BRM HiBit Degradation Maximum (%)” value is reported as “A (“A” indicates maximum degradation ≥75%)” and the DC50 is greater than 10 nM. In addition, in test [1], the Dmax was less than 50% and the DC50 is greater than 1000 nM.

Regarding `Cc1nc(N2CC[C@H](c3sc4nnc(-c5ccccc5O)cc4c3C)C2)ccc1-c1cc([C@H](C(=O)N2C[C@H](O)C[C@H]2C(=O)N[C@@H](C)c2ccc(-c3scnc3C)cc2)C(C)C)on1` [Compound 95, (2S,4R)-4-hydroxy-1-((R)-2-(3-(6-((S)-3-(3-(2-hydroxyphenyl)-5-methylthieno[2,3-c]pyridazin-6-yl)pyrrolidin-1-yl)-2-methylpyridin-3-yl)isoxazol-5-yl)-3-methylbutanoyl)-N-((S)-1-(4-(4-methylthiazol-5-yl)phenyl)ethyl)pyrrolidine-2-carboxamide], on HiBit-BRM fusion protein, the “BRM HiBit Degradation Maximum (%)” value was “A (“A” indicates maximum degradation ≥75%)” and the DC50 was less than 10 nM. For the same molecule, the Dmax in test [1] is less than 50%.

For the molecule `Cc1ncsc1-c1ccc([C@H](C)NC(=O)[C@@H]2C[C@@H](O)CN2C(=O)[C@@H](c2cc(-c3ccc(N4CCC(c5sc6nnc(-c7ccccc7O)cc6c5C)CC4)cc3F)no2)C(C)C)cc1` [Compound 4, (2S,4R)-1-((R)-2-(3-(2-fluoro-4-(4-(3-(2-hydroxyphenyl)-5-methylthieno[2,3-c]pyridazin-6-yl)piperidin-1-yl)phenyl)isoxazol-5-yl)-3-methylbutanoyl)-4-hydroxy-N-((S)-1-(4-(4-methylthiazol-5-yl)phenyl)ethyl)pyrrolidine-2-carboxamide], at HiBit-BRM fusion protein, the “BRM HiBit Degradation Maximum (%)” value is on record as “A (“A” indicates maximum degradation ≥75%)” and the DC50 was less than 10 nM. Also, in test [1], the Dmax is less than 50% and the DC50 was greater than 1000 nM.

Regarding `Cc1ncsc1-c1ccc([C@H](C)NC(=O)[C@@H]2C[C@@H](O)CN2C(=O)[C@@H](c2cc(-c3cnc(N4C[C@H]5C[C@@H](C4)[C@H]5c4cc5cc(-c6ccccc6O)nnc5s4)nc3)no2)C(C)C)cc1` [Compound 15, (2S,4R)-4-hydroxy-1-((R)-2-(3-(2-((1R,5S,6S)-6-(3-(2-hydroxyphenyl)thieno[2,3-c]pyridazin-6-yl)-3-azabicyclo[3.1.1]heptan-3-yl)pyrimidin-5-yl)isoxazol-5-yl)-3-methylbutanoyl)-N-((S)-1-(4-(4-methylthiazol-5-yl)phenyl)ethyl)pyrrolidine-2-carboxamide], on HiBit-BRM fusion protein, the “BRM HiBit Degradation Maximum (%)” value is reported as “B (“B” indicates maximum degradation ≥50%)” and the DC50 is greater than 100 nM. In addition, in test [1], the Dmax is less than 50% and the DC50 was greater than 1000 nM.

As to `Cc1ncsc1-c1ccc([C@H](C)NC(=O)[C@@H]2C[C@@H](O)CN2C(=O)[C@@H](c2cc(-c3cnc(N4CC[C@@H](c5cc6nnc(-c7ccccc7O)cc6s5)C4)nc3)no2)C(C)C)cc1` [Compound 82, (2S,4R)-4-hydroxy-1-((R)-2-(3-(2-((R)-3-(3-(2-hydroxyphenyl)thieno[3,2-c]pyridazin-6-yl)pyrrolidin-1-yl)pyrimidin-5-yl)isoxazol-5-yl)-3-methylbutanoyl)-N-((S)-1-(4-(4-methylthiazol-5-yl)phenyl)ethyl)pyrrolidine-2-carboxamide], at HiBit-BRM fusion protein, the “BRM HiBit Degradation Maximum (%)” value was “A (“A” indicates maximum degradation ≥75%)” and the DC50 is less than 10 nM. Further, in test [1], the Dmax was greater than 50% and the DC50 is greater than 10 nM.

Turning to `Cc1ncsc1-c1ccc([C@H](C)NC(=O)[C@@H]2C[C@@H](O)CN2C(=O)[C@@H](c2cc(-c3cnc(N4CCC(c5sc6nnc(-c7cccc(Cl)c7O)cc6c5C)CC4)nc3)no2)C(C)C)cc1` [Compound 29, (2S,4R)-1-((R)-2-(3-(2-(4-(3-(3-chloro-2-hydroxyphenyl)-5-methylthieno[2,3-c]pyridazin-6-yl)piperidin-1-yl)pyrimidin-5-yl)isoxazol-5-yl)-3-methylbutanoyl)-4-hydroxy-N-((S)-1-(4-(4-methylthiazol-5-yl)phenyl)ethyl)pyrrolidine-2-carboxamide], on HiBit-BRM fusion protein, the “BRM HiBit Degradation Maximum (%)” value is listed as “C (“C” indicates maximum degradation <50%)” and the DC50 is greater than 1000 nM. Moreover, in test [1], the Dmax was less than 50% and the DC50 was greater than 1000 nM.

For the molecule `Cc1ncsc1-c1ccc([C@H](C)NC(=O)[C@@H]2C[C@@H](O)CN2C(=O)[C@@H](c2cc(-c3cnc(N4CCC(c5sc6nnc(-c7ccccc7O)cc6c5C)[C@@H](C)C4)nc3)no2)C(C)C)cc1` (stereo in doubt) [Compound 35, (2S,4R)-4-hydroxy-1-((R)-2-(3-(2-((3R,4R)-4-(3-(2-hydroxyphenyl)-5-methylthieno[2,3-c]pyridazin-6-yl)-3-methylpiperidin-1-yl)pyrimidin-5-yl)isoxazol-5-yl)-3-methylbutanoyl)-N-((S)-1-(4-(4-methylthiazol-5-yl)phenyl)ethyl)pyrrolidine-2-carboxamide], at HiBit-BRM fusion protein, the “BRM HiBit Degradation Maximum (%)” value is on record as “A (“A” indicates maximum degradation ≥75%)” and the DC50 was less than 10 nM. Also, in test [1], the Dmax is less than 50% and the DC50 was greater than 1000 nM.

As to `Cc1ncsc1-c1ccc([C@H](C)NC(=O)[C@@H]2C[C@@H](O)CN2C(=O)[C@@H](c2cc(N3CC4(CC(c5sc6nnc(-c7ccccc7O)cc6c5C)C4)C3)no2)C(C)C)cc1` [Compound 23, (2S,4R)-4-hydroxy-1-((R)-2-(3-(6-(3-(2-hydroxyphenyl)-5-methylthieno[2,3-c]pyridazin-6-yl)-2-azaspiro[3.3]heptan-2-yl)isoxazol-5-yl)-3-methylbutanoyl)-N-((S)-1-(4-(4-methylthiazol-5-yl)phenyl)ethyl)pyrrolidine-2-carboxamide], on HiBit-BRM fusion protein, the “BRM HiBit Degradation Maximum (%)” value is “A (“A” indicates maximum degradation ≥75%)” and the DC50 was less than 10 nM. In addition, in test [1], the Dmax is less than 50% and the DC50 is greater than 1000 nM.

With `Cc1ncsc1-c1ccc([C@H](C)NC(=O)[C@@H]2C[C@@H](O)CN2C(=O)[C@@H](c2cc(-c3ccc(N4CCC(c5cc6cc(-c7ccccc7O)nnc6s5)CC4)nc3)no2)C(C)C)cc1` [Compound 39, (2S,4R)-4-hydroxy-1-((R)-2-(3-(6-(4-(3-(2-hydroxyphenyl)thieno[2,3-c]pyridazin-6-yl)piperidin-1-yl)pyridin-3-yl)isoxazol-5-yl)-3-methylbutanoyl)-N-((S)-1-(4-(4-methylthiazol-5-yl)phenyl)ethyl)pyrrolidine-2-carboxamide], on HiBit-BRM fusion protein, the “BRM HiBit Degradation Maximum (%)” value is recorded as “A (“A” indicates maximum degradation ≥75%)” and the DC50 is greater than 10 nM. In test [1], the Dmax is less than 50% and the DC50 was greater than 1000 nM.
